Data taken from patent US5220018A, “Cholecystokinin antagonists” (Merck & Co., Inc., priority 1992, dated 1993).
Read-outs that look alike come from different tables or passages of the source.

Experiments:
CCK Receptor (Brain) = molecular target: T1, CCK Receptor (Brain) (Cavia porcellus, UniProt H0VZC5); experiment: CCK Receptor Binding (Brain), inhibition of 125I-CCK-8 binding; parameters: species or system Male Hartley guinea pigs
T1 construct: the cortex was removed and homogenized in 25 mL ice-cold 0.32M sucrose; from tissue; host or cells: guinea pig cerebral cortex, P2 membrane pellet
T1 sequence (H0VZC5 1-426): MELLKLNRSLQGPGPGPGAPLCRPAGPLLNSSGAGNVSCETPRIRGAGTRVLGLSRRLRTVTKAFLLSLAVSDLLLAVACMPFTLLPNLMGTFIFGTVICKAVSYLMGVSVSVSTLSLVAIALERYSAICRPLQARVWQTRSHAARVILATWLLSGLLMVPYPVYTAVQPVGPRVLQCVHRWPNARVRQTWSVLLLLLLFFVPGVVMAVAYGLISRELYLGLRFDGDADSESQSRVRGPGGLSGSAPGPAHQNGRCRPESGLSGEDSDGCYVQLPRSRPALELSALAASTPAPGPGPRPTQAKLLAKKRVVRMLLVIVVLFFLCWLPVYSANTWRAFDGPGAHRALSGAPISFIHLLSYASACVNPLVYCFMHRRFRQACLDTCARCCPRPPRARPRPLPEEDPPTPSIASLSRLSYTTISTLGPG
Description: 2. CCK Receptor Binding (Brain)
CCK-8 sulphated was radiolabelled and the binding was performed according to the description for the pancreas method with minor modifications.
Male Hartley guinea pigs (300-500 g) were sacrificed by decapitation and the cortex was removed and homogenized in 25 mL ice-cold 0.32M sucrose. The homogenates were centrifuged at 1000 g for 10 minutes and the resulting supernatant was recentrifuged at 20,000 g for 20 minutes. […] All assays were run in duplicate. The reaction mixtures were incubated at 25° C. for 2 hours and then the reaction was terminated on Whatman GF/C filters by rapid filtration (Brandell 24 well cell Harvester) with 3×5 ml washes of cold 100 mM NaCl. The radioactivity on the filters was then counted with a LKB gamma counter.
(§1) Drug displacement studies were performed with at least 10 concentrations of compounds of formula 1 and the IC50 values were determined by regression analysis.

CCK Receptor (Pancreas) = molecular target: T2, CCK Receptor (Pancreas) (Rattus norvegicus, UniProt P30551); experiment: biochemical; assay type: binding, Male Sprague-Dawley rats
T2 construct: The whole pancreas was dissected free of fat tissue and was homogenized; from tissue; host or cells: rat whole pancreas, homogenate membranes
T2 sequence (P30551 1-444): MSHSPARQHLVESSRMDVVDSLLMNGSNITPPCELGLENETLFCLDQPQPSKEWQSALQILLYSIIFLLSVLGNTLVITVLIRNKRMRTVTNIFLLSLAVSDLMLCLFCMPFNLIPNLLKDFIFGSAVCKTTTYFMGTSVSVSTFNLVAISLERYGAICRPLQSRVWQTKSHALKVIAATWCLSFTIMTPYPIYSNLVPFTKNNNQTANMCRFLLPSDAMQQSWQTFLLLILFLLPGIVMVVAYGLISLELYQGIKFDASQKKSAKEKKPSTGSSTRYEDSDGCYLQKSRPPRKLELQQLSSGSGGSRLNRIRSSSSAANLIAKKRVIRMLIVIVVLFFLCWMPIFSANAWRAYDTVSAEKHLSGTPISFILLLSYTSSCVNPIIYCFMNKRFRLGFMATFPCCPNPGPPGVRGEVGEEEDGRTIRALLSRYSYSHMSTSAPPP
Description: 1. CCK Receptor Binding (Pancreas)
CCK-8 sulphated was radiolabelled with ^125 I-Bolton Hunter reagent (2000 Ci/mmole). Receptor binding was performed according to Chang and Lotti (Proc. Natl. Acad. Sci. 83, 4923-4926, 1986) with minor modifications.
Male Sprague-Dawley rats (150-200 g) were sacrificed by decapitation. The whole pancreas was dissected free of fat tissue and was homogenized in 25 volumes of ice-cold 10 mM Hepes buffer with 0.1% soya bean trypsin inhibitor (pH 7.4 at 25° C.) with a Kinematica Polytron. The homogenates were centrifuged at 47,800 g for 10 min. Pellets were resuspended in 10 volumes of binding assay buffer (20 mM Hepes, 1 mM EGTA, 5 mM MgCl2, 150 mM NaCl, bacitracin 0.25 mg/ml, soya bean trypsin inhibitor 0.1 mg/ml, and bovine serum albumin 2 mg/ml, pH 6.5 at 25° C.) using a teflon homogenizer, 15 strokes at 500 rpm. The homogenate was further diluted in binding assay buffer to give a final concentration of 0.5 mg original wet weight/1 ml buffer. […] All assays were run in duplicate. The reaction mixtures were incubated at 25° C. for 2 hours and the reaction terminated by rapid filtration (Brandell 24 well cell harvester) over Whatman GF/C filters, washing 3×4 mls with ice-cold 100 mM NaCl. The radioactivity on the filters was counted with a LKB gamma counter.
as §1

[1] = guinea pig cortex membranes, 125I-CCK-8 50 pM, 25° C., 2 hours, read-out: IC50, 125I-CCK Brain
[2] = rat pancreas membranes, 125I-CCK-8 50 pM, 25° C., 2 hours, read-out: IC50, 125I-CCK Pancreas

Row | Structure (SMILES) | IC50 (CCK Receptor (Brain); [1]) | IC50 (CCK Receptor (Pancreas); [2]) | IC50 (CCK Receptor (Pancreas)) | IC50 (CCK Receptor (Brain))
1 | CC(C)CN1C(=O)C(NC(=O)Nc2cccc(-c3nnn[nH]3)c2)N=C(c2ccccc2F)c2ccccc21 (racemic) [Example 21, N-[3(R,S)-2,3-Dihydro-5-(2-fluorophenyl)-1-(2-methylpropyl)-2-oxo-1H-1,4-benzodiazepin-3-yl]-N'-{[3-(tetrazol-5-yl)phenyl]urea}] | 1.4 nM | 150 nM | – | –
2 | CCN1C(=O)C(NC(=O)Nc2cccc(-c3nnn[nH]3)c2)N=C(c2ccccc2)c2ccccc21 (centres unmarked) [Example 3, N-{1,3-Dihydro-1-ethyl-2-oxo-5-phenyl-1H-1,4-benzodiazepin-3-yl}-N'-{[3-(1H-tetrazol-5-yl)phenyl]urea}] | 1.6 nM | – | 29 nM | –
3 | CC(C)N1C(=O)C(NC(=O)Nc2cccc(-c3nnn[nH]3)c2)N=C(c2ccccc2)c2ccccc21 (centres unmarked) [Example 4, N-{1,3-Dihydro-1-[2-propyl]-2-oxo-5-phenyl-1H-1,4-benzodiazepin-3-yl}-N'-{[3-(1H-tetrazol-5-yl)phenyl]urea}] | 4.1 nM | 200 nM | – | –
4 | CN1C(=O)[C@H](NC(=O)Nc2ccc(Cl)nc2)N=C(c2ccccc2)c2ccccc21 [Example 5, N-{1,3-Dihydro-1-methyl-2-oxo-5-phenyl-1H-1,4-benzodiazepin-3-yl}-N'-{[5-(2-chloro)pyridyl]urea}] | – | > 3000 nM | – | 46 nM
5 | COc1ccc(NC(=O)N[C@@H]2N=C(c3ccccc3)c3ccccc3N(C)C2=O)cn1 [Example 6, N-{1,3-Dihydro-1-methyl-2-oxo-5-phenyl-1H-1,4-benzodiazepin-3-yl}-N'-{[5-(2-methoxy)pyridyl]urea}] | 48 nM | 2000 nM | – | –
6 | CN1C(=O)[C@H](NC(=O)Nc2cccc(C#N)c2)N=C(c2ccccc2)c2ccccc21 [Example 7, N-{1,3-Dihydro-1-methyl-2-oxo-5-phenyl-1H-1,4-benzodiazepin-3-yl}-N'-{[3-(cyano)phenyl]urea}] | 27 nM | 3100 nM | – | –
7 | CC(=O)c1cccc(NC(=O)N[C@@H]2N=C(c3ccccc3)c3ccccc3N(C)C2=O)c1 [Example 8, N-{1,3-Dihydro-1-methyl-2-oxo-5-phenyl-1H-1,4-benzodiazepin-3-yl}-N'-{[3-(acetyl)phenyl]urea}] | 3.6 nM | 1200 nM | – | –
8 | CN1C(=O)[C@H](NC(=O)Nc2cccc(N)c2)N=C(c2ccccc2)c2ccccc21 [Example 9, N-{1,3-Dihydro-1-methyl-2-oxo-5-phenyl-1H-1,4-benzodiazepin-3-yl}-N'-{[3-(amino)phenyl]urea}] | 33 nM | > 3000 nM | – | –
9 | CN1C(=O)[C@H](NC(=O)Nc2cccc(C(N)=O)c2)N=C(c2ccccc2)c2ccccc21 [Example 10, N-{1,3-Dihydro-1-methyl-2-oxo-5-phenyl-1H-1,4-benzodiazepin-3-yl}-N'-{[3-(aminocarbonyl)phenyl]urea}] | 28 nM | 1360 nM | – | –
10 | COP(=O)(Nc1cccc(NC(=O)N[C@@H]2N=C(c3ccccc3)c3ccccc3N(C)C2=O)c1)OC [Example 11, N-{1,3-Dihydro-1-methyl-2-oxo-5-phenyl-1H-1,4-benzodiazepin-3-yl}-N'-{[3-(dimethylphosphoramido)phenyl]urea}] | 100 nM | 300 nM | – | –
11 | CN1C(=O)[C@H](NC(=O)Nc2cccc(NS(N)(=O)=O)c2)N=C(c2ccccc2)c2ccccc21 [Example 12, N-{1,3-Dihydro-1-methyl-2-oxo-5-phenyl-1H-1,4-benzodiazepin-3-yl}-N'-{[3-(aminosulfonamido)phenyl]urea}] | 32 nM | 530 nM | – | –
12 | CN1C(=O)[C@H](NC(=O)Nc2ccc3[nH]nnc3c2)N=C(c2ccccc2)c2ccccc21 [Example 13] | 19 nM | – | 1500 nM | –
13 | CN1C(=O)[C@H](NC(=O)Nc2cccc(S(N)(=O)=O)c2)N=C(c2ccccc2)c2ccccc21 [Example 14, N-{1,3-Dihydro-1-methyl-2-oxo-5-phenyl-1H-1,4-benzodiazepin-3-yl}-N'-{[3-(aminosulfonyl)phenyl]urea}] | 74 nM | 4400 nM | – | –
14 | CN1C(=O)[C@H](NC(=O)Nc2cccc(B(O)O)c2)N=C(c2ccccc2)c2ccccc21 [Example 15, N-{1,3-Dihydro-1-methyl-2-oxo-5-phenyl-1H-1,4-benzodiazepin-3-yl}-N'-{[3-phenylboronyl]urea}] | 9.6 nM | 420 nM | – | –
15 | CC(=O)NS(=O)(=O)c1cccc(NC(=O)N[C@@H]2N=C(c3ccccc3)c3ccccc3N(C)C2=O)c1 [Example 16, N-{1,3-Dihydro-1-methyl-2-oxo-5-phenyl-1H-1,4-benzodiazepin-3-yl}-N'-{[3-(acetylaminosulfonyl)phenyl]urea}] | 3.9 nM | > 3000 nM | – | –
16 | CN1C(=O)[C@H](NC(=O)Nc2cccc(Cc3nnn[nH]3)c2)N=C(c2ccccc2)c2ccccc21 [Example 17, N-{1,3-Dihydro-1-methyl-2-oxo-5-phenyl-1H-1,4-benzodiazepin-3-yl}-N'-{[3-((1H-tetrazol-5-yl)methyl)phenyl]urea}] | 4.8 nM | 1800 nM | – | –
17 | CCCN1C(=O)[C@H](NC(=O)Nc2cccc(-c3nnn[nH]3)c2)N=C(c2ccccc2)c2ccccc21 [Example 18, N-{1,3-Dihydro-1-n-propyl-2-oxo-5-phenyl-1H-1,4-benzodiazepin-3-yl}-N'-{[3-(1H-tetrazol-5-yl)phenyl]urea}] | 0.067 nM | 1100 nM | – | –
18 | CC[C@H](C)CN1C(=O)[C@H](NC(=O)Nc2cccc(-c3nnn[nH]3)c2)N=C(c2ccccc2)c2ccccc21 [Example 19, N-{1,3-Dihydro-1-[2-(S)-methylbutyl]-2-oxo-5-phenyl-1H-1,4-benzodiazepin-3-yl}-N'-{[3-(1H-tetrazol-5-yl)phenyl]urea}] | 0.25 nM | 500 nM | – | –
19 | O=C(Nc1cccc(-c2nnn[nH]2)c1)N[C@@H]1N=C(c2ccccc2)c2ccccc2N(CC2CC2)C1=O [Example 20, N-{1,3-Dihydro-1-cyclopropylmethyl-2-oxo-5-phenyl-1H-1,4-benzodiazepin-3-yl}-N'-{[3-(1H-tetrazol-5-yl)phenyl]urea}] | 0.4 nM | 870000 nM | – | –
20 | CC(=O)NC(=O)c1cccc(NC(=O)N[C@@H]2N=C(c3ccccc3)c3ccccc3N(C)C2=O)c1 [Example 22, N-{1,3-Dihydro-1-methyl-2-oxo-5-phenyl-1H-1,4-benzodiazepin-3-yl}-N'-{[3-(N-acetylcarboxamido)phenyl]urea}] | 55 nM | 3800 nM | – | –
21 | CN1C(=O)[C@H](NC(=O)Nc2cccc(C(=O)NS(C)(=O)=O)c2)N=C(c2ccccc2)c2ccccc21 [Example 23, N-{1,3-Dihydro-1-methyl-2-oxo-5-phenyl-1H-1,4-benzodiazepin-3-yl}-N'-{[3-(N-(methanesulfonyl)carboxamido)phenyl]urea}] | 12 nM | – | 1500 nM | –
22 | CC(C)S(=O)(=O)NC(=O)c1cccc(NC(=O)N[C@@H]2N=C(c3ccccc3)c3ccccc3N(C)C2=O)c1 [Example 24, N-{1,3-Dihydro-1-methyl-2-oxo-5-phenyl-1H-1,4-benzodiazepin-3-yl}-N'-{[3-(N-(2-propylsulfonyl)carboxamido)phenyl]urea}] | 7.6 nM | 2400 nM | – | –
